Experimental data reported in patent publication US20210163443A1, “Febrifugine Derivatives” (BRISTOL-MYERS SQUIBB COMPANY, priority 2019, published 2021).
pIC50: −log10 of the molar value. Where a name gives a salt, the structure may show the parent alone.

Molecular target: T1, human ProRS (prolyl tRNA synthetase moiety of glutamyl prolyl tRNA synthetase, EPRS) (Homo sapiens, UniProt P07814)
T1 construct: The prolyl tRNA synthetase moiety (ProRS) in the cDNA of glutamyl prolyl tRNA synthetase was subcloned; 6xHis (N, cleaved yes); made in house; host or cells: E. coli BL21 (DE3)
T1 sequence (P07814 1007-1512 limits assumed): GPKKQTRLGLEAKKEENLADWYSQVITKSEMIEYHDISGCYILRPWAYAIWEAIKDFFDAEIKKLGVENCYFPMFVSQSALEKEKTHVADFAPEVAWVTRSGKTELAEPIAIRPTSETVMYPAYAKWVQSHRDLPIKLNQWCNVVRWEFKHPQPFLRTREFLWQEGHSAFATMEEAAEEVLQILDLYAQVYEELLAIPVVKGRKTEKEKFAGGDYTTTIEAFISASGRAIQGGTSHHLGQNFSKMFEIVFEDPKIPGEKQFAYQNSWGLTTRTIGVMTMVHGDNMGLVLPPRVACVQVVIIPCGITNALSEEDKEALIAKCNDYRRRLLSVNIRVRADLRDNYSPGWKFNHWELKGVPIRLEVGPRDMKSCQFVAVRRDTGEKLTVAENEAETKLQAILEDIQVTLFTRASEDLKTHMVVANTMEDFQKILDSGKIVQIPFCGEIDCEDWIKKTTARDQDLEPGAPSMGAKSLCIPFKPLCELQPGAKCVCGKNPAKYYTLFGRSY
Experiment: Assay for inhibitors of prolyl tRNA synthetase activity (ProRS assay, labeled proline incorporation)
Assay type: biochemical
Conditions: human ProRS 20 nM, 10 min at 37° C.; read-out: EPRS IC50
Source text: In order to establish the activities of the compounds highlighted above, we determined extent of inhibition of prolyl tRNA synthetase activity in dose response curves to obtain IC50 values.
The prolyl tRNA synthetase moiety (ProRS) in the cDNA of glutamyl prolyl tRNA synthetase was subcloned, tagged with a single biotin, purified and used in the assay.
Briefly, human ProRS with a 6×N-terminal His tag in pET28N with TVMV BioP was transformed in E. coli BL21 (DE3) cells, selected, overexpressed and purified using a Ni Seph 6 FF XK 16/20 column in the first stage. Ni-NTA eluates were pooled and treated with TVMV protease, and biotinylated using d-Biotin, MgCl2, ATP and the BirA enzyme. This was rerun through a Ni column as before. The eluates were further enriched and purified using membrane ultrafiltration and a SuperDex 200 XK 16/60 column, and peak fractions were confirmed by SDS-PAGE prior to protein amount determination, aliquoting and storage at −80° C. • ProRS assay was performed in 96 well plates in a final reaction volume of 20 μl, using staggered additions of Tris-Cl (pH 7.5, 60 mM), dithiothreitol (2 mM), ATP (5 mM, pH 7.0), MgCl2 6 mM), ProRS (20 nM, with pre-determined active fraction range) and bovine tRNA (20 μg). Controls and compounds, at various concentrations (10 μM to 0.5 nM), were incubated on ice with enzyme mix for 15 min followed by addition of proline (non-labeled and labeled, 3.96 and 1.04 μM (1 μCi) respectively) to initiate the reaction. Reaction was carried out for 10 min at 37° C. and terminated by addition of TCA (10%, 100 μl). Reaction mix was collected on a Whatman GF/B filter using a vacuum filtration manifold. This filter was washed 3 times with 5% TCA followed by 2 washes with ethanol, air dried, and read using a liquid scintillation counter (TopCount NXT) using MicroScint O. IC50 values were calculated and analyzed using ToolSet (4-parameter plot) and depicted herein.

Question: `O=c1c2cc(-c3cccc(Cl)c3)ccc2ncn1C[C@@H](O)C[C@H]1NCCC[C@@H]1O` [Example 51, 6-(3-Chlorophenyl)-3-{(S)-2-hydroxy-3-[(2R,3S)-3-hydroxypiperidin-2-yl]propyl}quinazolin-4(3H)-one hydrochloride] was tested. Which pIC50 did it give?
Answer: Its pIC50 is 7.64.

Question: `O=c1c2c(C(F)(F)F)cccc2ncn1C[C@@H](O)C[C@H]1NCCC[C@@H]1O` [Example 59, 3-{(S)-2-Hydroxy-3-[(2R,3S)-3-hydroxypiperidin-2-yl]propyl}-5-(trifluoromethyl)quinazolin-4(3H)-one hydrochloride] was tested. Which pIC50 did it give?
Answer: Its pIC50 is 6.50.

Question: How did the pIC50 turn out when `COc1ccc2c(=O)n(CC(=O)C[C@H]3NCCC[C@@H]3O)cnc2c1C` [Example 4, 3-{3-[(2R,3S)-3-Hydroxypiperidin-2-yl]-2-oxopropyl}-7-methoxy-8-methylquinazolin-4(3H)-one hydrochloride] was run?
Answer: Its pIC50 is 7.31.

Question: With `Cc1cc(-c2cccc(F)c2)cc2c(=O)n(C[C@@H](O)C[C@H]3NCCC[C@@H]3O)cnc12` [Example 53, 6-(3-Fluorophenyl)-3-{(S)-2-hydroxy-3-[(2R,3S)-3-hydroxypiperidin-2-yl]propyl}-8-methylquinazolin-4(3H)-one hydrochloride] as the compound, how does the pIC50 read?
Answer: Its pIC50 is 8.05.

Question: `CCc1cc(C)c2ncn(CC(=O)C[C@H]3NCCC[C@@H]3O)c(=O)c2c1` [Example 6, 6-Ethyl-3-(3-((2R,3S)-3-hydroxypiperidin-2-yl)-2-oxopropyl)-8-methylquinazolin-4(3H)-one hydrochloride] was tested. Which pIC50 did it give?
Answer: Its pIC50 is 8.52.

Question: `Cc1cc(C(C)C)cc2c(=O)n(CC(=O)C[C@H]3NCCC[C@@H]3O)cnc12` [Example 10, 3-{3-[(2R,3S)-3-Hydroxypiperidin-2-yl]-2-oxopropyl}-6-isopropyl-8-methylquinazolin-4(3H)-one hydrochloride] was tested. Which pIC50 did it give?
Answer: Its pIC50 is 8.22.

Question: With `Cc1cc(C2CC2)cc2c(=O)n(CC(=O)C[C@H]3NCCC[C@@H]3O)cnc12` [Example 11, 6-Cyclopropyl-3-{3-[(2R,3S)-3-hydroxypiperidin-2-yl]-2-oxopropyl}-8-methylquinazolin-4(3H)-one hydrochloride] as the compound, how does the pIC50 read?
Answer: The pIC50 was 8.22.

Question: How did the pIC50 turn out when `Cc1cc(S(C)(=O)=O)cc2c(=O)n(C[C@@H](O)C[C@H]3NCCC[C@@H]3O)cnc12` [Example 43, 3-{(S)-2-Hydroxy-3-[(2R,3S)-3-hydroxypiperidin-2-yl]propyl}-8-methyl-6-(methylsulfonyl)quinazolin-4(3H)-one hydrochloride] was run?
Answer: Its pIC50 is 7.42.

Question: With `O=c1c2c(-c3ccc(F)c(F)c3)cccc2ncn1C[C@@H](O)C[C@H]1NCCC[C@@H]1O` [Example 61, 5-(3,4-Difluorophenyl)-3-{(S)-2-hydroxy-3-[(2R,3S)-3-hydroxypiperidin-2-yl]propyl}quinazolin-4(3H)-one hydrochloride] as the compound, how does the pIC50 read?
Answer: Its pIC50 is 7.16.

Question: `Cc1cc(-c2ccc(F)c(F)c2)cc2c(=O)n(CC(=O)C[C@H]3NCCC[C@@H]3O)cnc12` [Example 22, 6-(3,4-Difluorophenyl)-3-{3-[(2R,3S)-3-hydroxypiperidin-2-yl]-2-oxopropyl}-8-methylquinazolin-4(3H)-one hydrochloride] was tested. Which pIC50 did it give?
Answer: The pIC50 was 7.82.

Question: `Cc1c(Cl)ccc2c(=O)n(CC(=O)C[C@H]3NCCC[C@@H]3O)cnc12` [Example 2, 7-Chloro-3-{3-[(2R,3S)-3-hydroxypiperidin-2-yl]-2-oxopropyl}-8-methylquinazolin-4(3H)-one hydrochloride] was tested. Which pIC50 did it give?
Answer: The pIC50 was 7.82.

Question: With `Cl.O=c1c2c(-c3cccc(F)c3)cccc2ncn1C[C@@H](O)C[C@H]1NCCC[C@@H]1O` [Example 49, 5-(3-Fluorophenyl-3-{(S)-2-hydroxy-3-[(2R,3S)-3-hydroxypiperidin-2-yl]propyl}quinazolin-4(3H)-one hydrochloride] as the compound, how does the pIC50 read?
Answer: The pIC50 was 7.39.

Question: How did the pIC50 turn out when `Cc1cc(C2CCC2)cc2c(=O)n(C[C@@H](O)C[C@H]3NCCC[C@@H]3O)cnc12` [Example 67, 6-cyclobutyl-3-{(S)-2-hydroxy-3-[(2R,3S)-3-hydroxypiperidin-2-yl]propyl}-8-methylquinazolin-4(3H)-one] was run?
Answer: The pIC50 was 7.74.

Question: `Cc1cc(Cl)cc2c(=O)n(C[C@@H](O)C[C@H]3NCCC[C@@H]3OC(=O)C(C)(C)C)cnc12` [Example 63, (2R,3S)-2-{(S)-3-[6-chloro-8-methyl-4-oxoquinazolin-3(4H)-yl]-2-hydroxypropyl}piperidin-3-ylpivalate hydrochloride] was tested. Which pIC50 did it give?
Answer: The pIC50 was less than 5.00.

Question: How did the pIC50 turn out when `O=c1c2c(C3CC3)cccc2ncn1C[C@@H](O)C[C@H]1NCCC[C@@H]1O` [Example 68, 5-Cyclopropyl-3-{(S)-2-hydroxy-3-[(2R,3S)-3-hydroxypiperidin-2-yl]propyl}quinazolin-4(3H)-one hydrochloride] was run?
Answer: Its pIC50 is 8.05.

Question: With `Cc1cc(-c2cccnc2)cc2c(=O)n(C[C@@H](O)C[C@H]3NCCC[C@@H]3O)cnc12` [Example 55, 3-{(S)-2-Hydroxy-3-[(2R,3S)-3-hydroxypiperidin-2-yl]propyl}-8-methyl-6-(pyridin-3-yl)quinazolin-4(3H)-one dihydrochloride] as the compound, how does the pIC50 read?
Answer: The pIC50 was 7.96.

Question: `Cl.[2H]C([2H])([2H])c1cc(Cl)cc2c(=O)n(C[C@@H](O)C[C@H]3NCCC[C@@H]3O)cnc12` [Example 35, 6-Chloro-3-{(S)-2-hydroxy-3-[(2R,3S)-3-hydroxypiperidin-2-yl]propyl}-8-(methyl-d3)quinazolin-4(3H)-one hydrochloride] was tested. Which pIC50 did it give?
Answer: The pIC50 was 7.49.

Question: `CCc1cc(C)c2ncn(C[C@@H](O)C[C@H]3NCCC[C@@H]3O)c(=O)c2c1` [Example 41, 6-Ethyl-3-{(S)-2-hydroxy-3-[(2R,3S)-3-hydroxypiperidin-2-yl]propyl}-8-methylquinazolin-4(3H)-one hydrochloride] was tested. Which pIC50 did it give?
Answer: The pIC50 was 7.64.

Question: “3-{(S)-2-hydroxy-3-[(2R,3S)-3-hydroxypiperidin-2-yl]propyl}-8-methyl-6-(1-methyl-1H-pyrazol-3-yl)quinazolin-4(3H)-one hydrochloride [Example 71]” was tested. Which pIC50 did it give?
Answer: The pIC50 was 5.38.

Question: `Cc1cc(N2CCCC2)cc2c(=O)n(CC(=O)C[C@H]3NCCC[C@@H]3O)cnc12` [Example 24, 3-{3-[(2R,3S)-3-Hydroxypiperidin-2-yl]-2-oxopropyl}-8-methyl-6-(pyrrolidin-1-yl)quinazolin-4(3H)-one dihydrochloride] was tested. Which pIC50 did it give?
Answer: The pIC50 was 7.85.

Question: `O=C(C[C@H]1NCCC[C@@H]1O)Cn1cnc2cccc(-c3cccnc3)c2c1=O` [Example 28, 3-{3-[(2R,3S)-3-Hydroxypiperidin-2-yl]-2-oxopropyl}-5-(pyridin-3-yl)quinazolin-4(3H)-one dihydrochloride] was tested. Which pIC50 did it give?
Answer: The pIC50 was 8.22.

Question: With `Cc1cc(OC(F)(F)F)cc2c(=O)n(CC(=O)C[C@H]3NCCC[C@@H]3O)cnc12` [Example 7, 3-{3-[(2R,3S)-3-Hydroxypiperidin-2-yl]-2-oxopropyl}-8-methyl-6-(trifluoromethoxy)quinazolin-4(3H)-one hydrochloride] as the compound, how does the pIC50 read?
Answer: Its pIC50 is 8.05.

Question: How did the pIC50 turn out when `O=C(C[C@H]1NCCC[C@@H]1O)Cn1cnc2ccc(-c3cccc(C(F)(F)F)c3)cc2c1=O` [Example 18, 3-{3-[(2R,3S)-3-Hydroxypiperidin-2-yl]-2-oxopropyl}-6-[3-(trifluoromethyl)phenyl]quinazolin-4(3H)-one hydrochloride] was run?
Answer: The pIC50 was 7.40.

Question: With `Cc1cc(N2CCCC2)cc2c(=O)n(C[C@@H](O)C[C@H]3NCCC[C@@H]3O)cnc12` [Example 58, 3-{(S)-2-Hydroxy-3-[(2R,3S)-3-hydroxypiperidin-2-yl]propyl}-8-methyl-6-(pyrrolidin-1-yl)quinazolin-4(3H)-one dihydrochloride] as the compound, how does the pIC50 read?
Answer: The pIC50 was 6.49.

Question: With `Cc1cc(S(C)(=O)=O)cc2c(=O)n(CC(=O)C[C@H]3NCCC[C@@H]3O)cnc12` [Example 8, 3-{3-[(2R,3S)-3-Hydroxypiperidin-2-yl]-2-oxopropyl}-8-methyl-6-methylsulfonyl)quinazolin-4(3H)-one hydrochloride] as the compound, how does the pIC50 read?
Answer: The pIC50 was 8.05.

Question: How did the pIC50 turn out when `O=C(C[C@H]1NCCC[C@@H]1O)Cn1cnc2cccc(C(F)(F)F)c2c1=O` [Example 25, 3-{3-[(2R,3S)-3-Hydroxypiperidin-2-yl]-2-oxopropyl}-5-(trifluoromethyl)quinazolin-4(3H)-one hydrochloride] was run?
Answer: The pIC50 was 8.00.
